One may read the Kd as the constant that tells how readily two partners part at equilibrium. In general, IC50 refers to the point on the concentration scale where inhibition reaches its midpoint. Low values mean higher potency, high ones lower potency.

Molecules are shown by their SMILES.

For one compound, Kd and IC50 results are on record in article PMC11830387, “KIRA6 is an Effective and Versatile Mast Cell Inhibitor of IgE‐mediated Activation” (European Journal of Immunology, 2024).

For experiment [1], the target named is T1, LYN (Homo sapiens, UniProt P07948).
T1 construct: recombinant human active protein kinase LYN (ProQinase, #0358-0000-1)
T1 sequence (P07948 2-512): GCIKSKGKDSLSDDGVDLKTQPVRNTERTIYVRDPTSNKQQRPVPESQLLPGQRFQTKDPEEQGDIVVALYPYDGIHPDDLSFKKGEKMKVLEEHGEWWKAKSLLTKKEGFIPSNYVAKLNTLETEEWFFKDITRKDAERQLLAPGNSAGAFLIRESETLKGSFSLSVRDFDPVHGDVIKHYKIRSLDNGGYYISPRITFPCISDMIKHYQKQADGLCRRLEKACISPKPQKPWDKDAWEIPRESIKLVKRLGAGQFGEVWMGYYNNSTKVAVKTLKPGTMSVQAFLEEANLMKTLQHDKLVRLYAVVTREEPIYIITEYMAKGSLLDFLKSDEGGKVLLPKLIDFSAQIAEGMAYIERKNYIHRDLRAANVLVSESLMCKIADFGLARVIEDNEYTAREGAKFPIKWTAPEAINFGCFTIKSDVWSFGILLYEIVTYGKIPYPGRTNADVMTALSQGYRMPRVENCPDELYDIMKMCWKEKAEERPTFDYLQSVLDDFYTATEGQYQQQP
Kind of experiment: MicroScale thermophoresis, supported by nanoDSF thermal shift. It counts as binding.

Experiment [2] has as its target T2, LYN (Mus musculus, UniProt P25911).
T2 construct: LYN immunoprecipitated from unstimulated BMMCs
Kind of experiment: in vitro kinase assay with immunoprecipitated LYN and GST-SH3P7 substrate. It counts as biochemical.

A further experiment addresses T3, FYN (Homo sapiens, UniProt P06241).
T3 construct: recombinant human active protein kinase FYN (ProQinase, #0352-0000-1)
Description: MicroScale thermophoresis, supported by nanoDSF. It counts as binding.

T2 sequence (P25911 2-512): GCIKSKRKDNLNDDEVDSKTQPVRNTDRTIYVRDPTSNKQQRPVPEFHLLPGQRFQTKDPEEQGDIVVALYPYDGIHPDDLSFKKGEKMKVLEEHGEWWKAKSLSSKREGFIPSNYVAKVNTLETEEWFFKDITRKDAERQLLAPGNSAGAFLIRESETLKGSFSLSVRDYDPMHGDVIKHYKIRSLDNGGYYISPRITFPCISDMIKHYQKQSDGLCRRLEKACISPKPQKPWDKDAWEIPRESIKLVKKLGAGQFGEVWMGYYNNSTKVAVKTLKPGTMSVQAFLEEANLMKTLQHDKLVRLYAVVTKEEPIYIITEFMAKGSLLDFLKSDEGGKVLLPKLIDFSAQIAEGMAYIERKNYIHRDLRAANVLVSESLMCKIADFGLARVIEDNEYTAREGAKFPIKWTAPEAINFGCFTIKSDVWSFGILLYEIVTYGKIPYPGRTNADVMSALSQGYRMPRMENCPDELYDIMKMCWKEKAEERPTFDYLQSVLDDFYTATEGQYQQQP
T3 sequence (P06241 2-537): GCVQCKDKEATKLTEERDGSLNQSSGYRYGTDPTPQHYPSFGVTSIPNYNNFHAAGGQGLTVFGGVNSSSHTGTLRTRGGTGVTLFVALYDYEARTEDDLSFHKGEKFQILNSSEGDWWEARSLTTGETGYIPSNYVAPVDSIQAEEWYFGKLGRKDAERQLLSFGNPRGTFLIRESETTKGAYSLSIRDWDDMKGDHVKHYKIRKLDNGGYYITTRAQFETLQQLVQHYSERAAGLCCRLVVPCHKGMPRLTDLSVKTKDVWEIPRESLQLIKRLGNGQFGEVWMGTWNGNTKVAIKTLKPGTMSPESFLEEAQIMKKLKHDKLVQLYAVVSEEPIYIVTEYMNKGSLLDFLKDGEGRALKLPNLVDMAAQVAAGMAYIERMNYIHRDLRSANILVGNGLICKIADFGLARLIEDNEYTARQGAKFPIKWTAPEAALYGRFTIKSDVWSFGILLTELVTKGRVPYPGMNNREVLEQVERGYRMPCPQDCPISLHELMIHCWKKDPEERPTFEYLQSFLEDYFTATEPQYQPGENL

As to `CC(C)(C)c1nc(-c2ccc(NC(=O)Nc3cccc(C(F)(F)F)c3)c3ccccc23)c2c(N)nccn12` [KIRA6], the figures for the Kd at LYN [1] and at FYN were 3.2 ± 1.2 µM and 8.4 ± 2.6 µM, respectively. Also, the IC50 against LYN [2] is ~300 nM.
